Experimental data from patent US5877026A, “Analgesic peptides from venom of Grammostola spatulata and use thereof” (priority 1998, dated 1999).
Where no end group is shown, it is not given here.

How the values were obtained:
Format in all cases: in vivo, rat
Sprague-Dawley rats [1] = experiment: Tail flick latency
Source text: This test measures the time interval required for a rat to withdraw its tail, via a spinally mediated reflex mechanism, from a high intensity light source (IITC Inc./Life Sciences Instruments, Woodland Hills, Calif. 91367) focally applied to the dorsal surface of the appendage. The intensity of the light beam has been experimentally defined such that naive animals will withdraw their tails within 2 to 4 seconds. A maximum cut off time for the light source has been set at ten seconds to reduce the amount of secondary tissue damage.
Data is expressed either as absolute time or a percentage of the maximal possible effect (MPE) which is described by the following equation where 10 seconds is the maximum: [formula] (Latency refers to the amount of time before the animal removed its appendage from the light source.)
(§1) With minimal restraint, peptide GsAF I was injected intrathecally (i.th.) into young (75-150 gram) male Sprague-Dawley rats (Charles Rivers Laboratories, Wilmington, Mass. 01887). I.th. injections were made into the spinal subarachnoid space between lumbar spinous processes L4 and L5 using 10 microliter Hamilton syringes equipped with 3/8 inch by 28G needles. Dosing levels were based upon concentrations deduced from ultraviolet absorbance values at 280 nm using an extinction coefficient of 18710. Injection volume was 10 microliters. The injection vehicle was saline or 0.1% bovine serum albumin(BSA)/saline. The rats were pretreated with GsAF I 30 minutes prior to exposure to the light source.
as §1, with “GsAF II” for “GsAF I”, “Wilmington, Mass.))” for “Wilmington, Mass. 01887). I.th. injections were made”, “using the deduced molar” for “using an”, “of 24310.” for “of 18710.”, “GsAF II 15” for “GsAF I 30”

Sprague-Dawley rats [2] = experiment: von Frey filament threshold
Source text: In this test filaments of increasing thickness are applied to the dorsal surface of a hindlimb until the rat either voluntarily removes the appendage with a forcible escape movement or vocalizes. The thickness of the filaments are arbitrarily labelled with a value which can be transformed into a grams force reading according to the following equation: [formula] Data are expressed either as absolute gram force values or a percentage of the maximum possible effect (MPE) as described in the following equation: [formula]

Sprague-Dawley rats [3] = experiment: Formalin pain test; conditions: for Acute Flinches, % control / Acute Flinches, absolute level: 0-5 minutes post formalin; for Tonic Flinches, % control / Tonic Flinches, absolute level / Tonic Licking, % control / Tonic Licking, absolute level: 20-35 minutes post formalin
Procedure: The noxious stimulus for this test is the sub-cutaneous injection of a 5% solution of formalin into the dorsal surface of one of the hindlimbs of the animal. Motor activity indices used in this test are 1) the total time spent licking that appendage and 2) the total number of flinching/shaking responses of the affected appendage. Data collection is initiated immediately upon injection of the formalin solution into the limb. The acute phase response is defined by the time interval of 0-5 minutes post formalin injection. The tonic phase response is defined by the interval of 20-35 minutes post formalin injection Data collection is done in a computerized format. Expression of the data is done using either absolute values or as percent control which is defined by the level of response following injection of saline vehicle.
as §1, with “Mass.)” for “Mass. 01887). I.th. injections were made”, “injection with” for “exposure to”, “formalin solution.” for “light source.”
With minimal restraint, peptide GsAF II was injected intrathecally (i.th.) into young (75-150 gram) male Sprague-Dawley rats (Charles Rivers Laboratories, Wilmington, Mass.) into the spinal subarachnoid space between lumbar spinous processes L4 and L5 using 10 microliter Hamilton syringes equipped with 3/8 inch by 28G needles. Dosing levels were based upon concentrations deduced from ultraviolet absorbance values at 280 nm as stated previously. Based upon a mass of 3980 Da, 583 pmoles corresponds to 2.3 micrograms of GsAF II, and 2.33 nmoles corresponds to 9.3 micrograms of GsAF II. Injection volume was 10 microliters. The injection vehicle was saline or 0.1 % bovine serum albumin(BSA)/saline. The rats were pretreated with GsAF II 15 minutes prior to injection with formalin.
In addition to the above analyses, 180 pmoles (666 nanograms) of GsAF I was administered 5 minutes after injection of 5% formalin and the tonic phase responses were recorded as described previously. The highly efficacious activity of GsAF I was retained. Tonic flinch response was inhibited 86% (i.e. 14% of control) and tonic lick duration was reduced 91 % (i.e. 9% of control). This property has only been reported for strong analgesic compounds that interact with μ-opioid receptors.

[4] = 583 picomoles (2.33 micrograms) i.th., 15 minutes pretreatment
[5] = 583 pmoles i.th., 15 minutes pretreatment
[6] = 2.33 nmoles i.th., 15 minutes pretreatment
[7] = 1.8 pmoles i.th., 30 minutes pretreatment
[8] = 18 pmoles i.th., 30 minutes pretreatment
[9] = 180 pmoles (666 nanograms) administered 5 minutes after injection of 5% formalin
[10] = 180 pmoles i.th., 30 minutes pretreatment

## YCQKWMWTCDEERKCCEGLVCRLWCKKKIEW (cysteine pairing not given here) [GsAF II]
Sprague-Dawley rats [1]; 2.33 nanomoles (9.27 micrograms) i.th., 15 minutes pretreatment, all animals (n=8)
  inhibition of the tail flick response (latency greater than ten seconds): Complete inhibition
Sprague-Dawley rats [1]; 2.33 nanomoles and 583 picomoles i.th.
  confounding side effects: no confounding side effects were detected
Sprague-Dawley rats [1]; [4]
  animals with 100% MPE, tail flick: five of six
  average MPE, tail flick latency: 92%
Sprague-Dawley rats [2]; 2.33 nanomole (9.27 micrograms), 30 minutes post injection
  MPE, von Frey threshold: 83%
Sprague-Dawley rats [2]; 2.33 nanomole (higher dose), 30 minutes post injection
  rats demonstrating maximal analgesic activity (100% MPE), von Frey: 75%
Sprague-Dawley rats [2]; 583 picomole (2.32 micrograms), 30 minutes post injection
  MPE, von Frey threshold: 48%
Sprague-Dawley rats [3]; [5]
  Acute Flinches, % control: 41%
  Acute Flinches, absolute level: 6.8
  Tonic Flinches, % control: 9.5%
  Tonic Flinches, absolute level: 8.2
  Tonic Licking, % control: 8.2%
  Tonic Licking, absolute level: 7.8 s
Sprague-Dawley rats [3]; [6]
  Acute Flinches, % control: 19%
  Acute Flinches, absolute level: 3.25
  Tonic Flinches, % control: 1.4%
  Tonic Flinches, absolute level: 1.2
  Tonic Licking, % control: 0%
  Tonic Licking, absolute level: 0 s

## Tyr-Cys-Gln-Lys-Trp-Leu-Trp-Thr-Cys-Asp-Ser-Glu-Arg-Lys-Cys-Cys-Glu-Asp-Met-Val-Cys-Arg-Leu-Trp-Cys-Lys-Lys-Arg-Leu-NH2 (YCQKWLWTCDSERKCCEDMVCRLWCKKRL-NH2; cysteine pairing not given here) [GsAF I]
Sprague-Dawley rats [1]; 1.8 picomoles (6.6 nanograms) i.th., 30 minutes pretreatment
  activity in tail flick latency: inactive
Sprague-Dawley rats [1]; 18 picomoles (66 nanograms) i.th., 30 minutes pretreatment
  MPE, tail flick latency: 29 % MPE
Sprague-Dawley rats [1]; 180 picomoles (666 nanograms) i.th., 30 minutes pretreatment
  MPE, tail flick latency: 95 % MPE
Sprague-Dawley rats [1]; 180 picomoles (666 nanograms) i.th., in most rats
  inhibition of the tail flick response (latency value greater than 10 seconds): Complete inhibition
Sprague-Dawley rats [1]; 180 picomoles i.th.
  confounding side effects (motor disturbances, limb impairment/paralysis, righting reflex, sedation): either minimal or not present
Sprague-Dawley rats [1]; i.th., tail flick
  pretreatment time with maximal activity: 30 min
Sprague-Dawley rats [2]; 18 picomole (6.6 nanograms), one hour pretreatment
  MPE, von Frey threshold: 22 % MPE
Sprague-Dawley rats [2]; 18 picomoles (66 nanograms), 30 minutes post injection
  MPE, von Frey threshold: 24 % MPE
Sprague-Dawley rats [2]; 180 and 18 picomoles
  confounding side effects: No confounding side effects were present
Sprague-Dawley rats [2]; 180 picomole, one hour pretreatment
  MPE, von Frey threshold: 100 % MPE
Sprague-Dawley rats [2]; 180 picomoles (666 nanograms), 30 minutes post injection
  MPE, von Frey threshold: 93 % MPE
Sprague-Dawley rats [3]; [7]
  Acute Flinches, % control: 28%
  Acute Flinches, absolute level: 12
  Tonic Flinches, % control: 32%
  Tonic Flinches, absolute level: 44.3
  Tonic Licking, % control: 46%
  Tonic Licking, absolute level: 84.3 s
Sprague-Dawley rats [3]; [8]
  Acute Flinches, % control: 20%
  Acute Flinches, absolute level: 8.5
  Tonic Flinches, % control: 21%
  Tonic Flinches, absolute level: 29.5
  Tonic Licking, % control: 8.4%
  Tonic Licking, absolute level: 15.3 s
Sprague-Dawley rats [3]; [9]
  Tonic flinch response, % of control: 14 % of control
  Tonic flinch response, inhibition: 86%
  tonic lick duration, % of control: 9 % of control
  tonic lick duration, reduction: 91%
Sprague-Dawley rats [3]; [10]
  Acute Flinches, % control: 8.9%
  Acute Flinches, absolute level: 3.8
  Tonic Flinches, % control: 3.0%
  Tonic Flinches, absolute level: 4.3
  Tonic Licking, % control: 0%
  Tonic Licking, absolute level: 0 s
